Reference: ChEMBL document CHEMBL1132768, “Differential antibacterial activity of moenomycin analogues on gram-positive bacteria” (Bioorg Med Chem Lett, 2000)
Values after ≈ are worked out from the molar mass of the structure shown.

Columns and labels:
Enterococcus faecium [1] = assay: Compound was evaluated for its antibacterial activity against Enterococcus faecium RLA1 strain resistant to ampicillin; format: functional
Enterococcus faecium [2] = assay: Compound was evaluated for its antibacterial activity against Enterococcus faecium ATCC 49624; format: functional
Enterococcus faecalis [3] = assay: Compound was evaluated for its antibacterial activity against Enterococcus faecalis ATCC 29212; format: functional
Enterococcus faecalis [4] = assay: Compound was evaluated for inhibition of peptidoglycan synthesis in Enterococcus faecalis using [14C]lysine radioligand; format: functional, organism-based
Escherichia coli [5] = assay: Compound was evaluated for inhibition of peptidoglycan synthesis in Escherichia coli using UDP-[14C]-GlcNAc radioligand; format: functional, organism-based
Staphylococcus aureus [6] = assay: Compound was evaluated for bactericidal activity against Staphylococcus aureus; format: functional
[7] = test system: Staphylococcus epidermidis; assay: Compound was evaluated for its antibacterial activity against […] ATCC 12228; format: functional
Escherichia coli [8] = assay: Compound was evaluated for inhibition of peptidoglycan synthesis in Escherichia coli using [14C]-lipid II radioligand; format: functional, organism-based
Enterococcus faecalis [9] = assay: Compound was evaluated for bactericidal activity against Enterococcus faecalis; format: functional; design: concentration or dose not given beside the values
Enterococcus faecalis [10] = assay: Compound was evaluated for its antibacterial activity against Enterococcus faecalis CL5244 (Van B); format: functional
Staphylococcus aureus [11] = assay: Compound was evaluated for its antibacterial activity against Staphylococcus aureus ATCC 29213; format: functional
[12] = test system: Staphylococcus epidermidis; assay: Compound was evaluated for bactericidal activity against Staphylococcus epidermidis; format: functional
Escherichia coli [13] = assay: Compound was evaluated for its antibacterial activity against Escherichia coli BAS849; format: functional
Enterococcus faecalis [14] = assay: Compound was evaluated for its antibacterial activity against Enterococcus faecalis CL4877 (Van B); format: functional
Enterococcus faecium [15] = assay: Compound was evaluated for its antibacterial activity against Enterococcus faecium CL4931 (Van A); format: functional
[16] = test system: Staphylococcus epidermidis; assay: Compound was evaluated for bactericidal activity against […]; format: functional
Enterococcus faecalis [17] = assay: Compound was evaluated for inhibition of peptidoglycan synthesis in Enterococcus faecalis using [14C]lysine radioligand; not applicable; format: functional, organism-based
[18] = test system: Staphylococcus epidermidis; assay: Compound was evaluated for its antibacterial activity against Staphylococcus epidermidis ATCC 12228; format: functional

| SMILES | MIC (Enterococcus faecium [1]) [µg/mL] | MIC (Enterococcus faecium [2]) [µg/mL] | MIC (Enterococcus faecalis [3]) [µg/mL] | IC50 (Enterococcus faecalis [4]) [nM] | IC50 (Escherichia coli [5]) [nM] | Survival (Staphylococcus aureus [6]) [%] | MIC [7] [µg/mL] | IC50 (Escherichia coli [8]) [nM] | Survival (Enterococcus faecalis [9]) [%] | MIC (Enterococcus faecalis [10]) [µg/mL] | MIC (Staphylococcus aureus [11]) [µg/mL] | Survival [12] [%] | MIC (Escherichia coli [13]) [µg/mL] | MIC (Enterococcus faecalis [14]) [µg/mL] | MIC (Enterococcus faecium [15]) [µg/mL] | Survival [16] [%] | IC50 (Enterococcus faecalis [17]) | MIC [18] [µg/mL] |
| --- | --- | --- | --- | --- | --- | --- | --- | --- | --- | --- | --- | --- | --- | --- | --- | --- | --- | --- |
| CC(=O)N[C@@H]1[C@H](O[C@H]2[C@@H](O)[C@H](NC(C)=O)[C@H](O[C@@H]3[C@@H](OP(=O)(O)OC[C@@H](OCCC(C)CCCCC(C)(C)CCC(C)CCC(C)CCCC(C)C)C(=O)O)O[C@@H](C(N)=O)[C@@](C)(O)[C@@H]3OC(N)=O)O[C@H]2CO[C@@H]2O[C@@H](CO)[C@@H](O)[C@H](O)[C@@H]2O)O[C@@H](C)[C@@H](O[C@@H]2O[C@@H](C(N)=O)[C@H](O)[C@H](O)[C@@H]2O)[C@@H]1O (stereo partly specified) | 0.25 (≈ 0.167 µM) | > 25 | 0.16 (≈ 0.107 µM) | > 700000 | 8.6 | 61 | 0.16 (≈ 0.107 µM) | 87 | 176 | 0.25 (≈ 0.167 µM) | 0.08 (≈ 0.0535 µM) | 0.4 | 0.08 (≈ 0.0535 µM) | 0.25 (≈ 0.167 µM) | 0.39 (≈ 0.261 µM) | – | – | – |
| CCCCCCCCCCCCO[C@H](COP(=O)(O)OC1OC(C(N)=O)C(O)C(NC(=O)Nc2ccc(Cl)c(C(F)(F)F)c2)C1OC1OC(CO)C(O)C(O)C1NC(=O)c1cccc(C(F)(F)F)c1)C(=O)O (stereo partly specified) | 6.25 (≈ 5.77 µM) | 6.25 (≈ 5.77 µM) | 6.25 (≈ 5.77 µM) | 2500 | 9800 | <5e-05 | 6.25 (≈ 5.77 µM) | 100000 | 0.00024 | 3.13 (≈ 2.89 µM) | 6.25 (≈ 5.77 µM) | – | 12.5 (≈ 11.5 µM) | 3.13 (≈ 2.89 µM) | 6.25 (≈ 5.77 µM) | <5e-05 | – | – |
| CC(=O)NC1C(OC2C(OP(=O)(O)OC[C@@H](OCCC(C)CCCCC(C)(C)CCC(C)CCC(C)CCCC(C)C)C(=O)O)OC(C(N)=O)C(C)(O)C2OC(N)=O)OC(CO)C(O)C1O (stereo partly specified) | – | > 100 | > 100 | – | 33 | – | – | 241 | – | > 100 | > 100 | – | > 100 | > 100 | > 100 | – | Not Active | > 100 |
| CN[C@H](CC(C)C)C(=O)N[C@H]1C(=O)N[C@@H](CC(N)=O)C(=O)N[C@H]2C(=O)N[C@H]3C(=O)N[C@H](C(=O)N[C@H](C(=O)O)c4cc(O)cc(O)c4-c4cc3ccc4O)[C@H](O)c3ccc(c(Cl)c3)Oc3cc2cc(c3O[C@@H]2O[C@H](CO)[C@@H](O)[C@H](O)[C@H]2O[C@H]2C[C@](C)(N)[C@H](O)[C@H](C)O2)Oc2ccc(cc2Cl)[C@H]1O [VANCOMYCIN] | 0.78 (≈ 0.538 µM) | 0.39 (≈ 0.269 µM) | 3.12 (≈ 2.15 µM) | 2600 | 3700 | – | – | 4500 | – | 25 (≈ 17.3 µM) | – | – | 0.78 (≈ 0.538 µM) | 1250 (≈ 863 µM) | > 1250 | – | – | – |
| CC(=O)N[C@@H]1[C@H](O[C@H]2[C@@H](O)[C@H](NC(C)=O)[C@H](OC3[C@@H](OP(=O)(O)OC[C@@H](OCCC(C)CCCCC(C)(C)CCC(C)CCC(C)CCCC(C)C)C(=O)O)O[C@@H](C(N)=O)[C@@](C)(O)[C@@H]3OC(N)=O)O[C@H]2CO[C@@H]2O[C@@H](CO)[C@@H](O)[C@H](O)[C@@H]2O)O[C@@H](C)[C@@H](O[C@@H]2O[C@@H](C(=O)NC3=C(O)CCC3=O)[C@H](O)[C@H](O)[C@@H]2O)[C@@H]1O (stereo partly specified) | 0.25 (≈ 0.157 µM) | > 25 | 0.08 (≈ 0.0502 µM) | > 700000 | 8.1 | 62 | – | 98 | 141 | 0.25 (≈ 0.157 µM) | 0.16 (≈ 0.1 µM) | 0.33 | 0.31 (≈ 0.195 µM) | 0.25 (≈ 0.157 µM) | 0.78 (≈ 0.49 µM) | – | – | 0.31 (≈ 0.195 µM) |
| CC(=O)NC1C(OC2C(CO)OC(OC3C(OP(=O)(O)OC[C@@H](OCCC(C)CCCCC(C)(C)CCC(C)CCC(C)CCCC(C)C)C(=O)O)OC(C(N)=O)C(C)(O)C3OC(N)=O)C(NC(C)=O)C2O)OC(C)C(O)C1O (stereo partly specified) | 1.56 (≈ 1.35 µM) | 25 (≈ 21.6 µM) | 0.78 (≈ 0.673 µM) | 50400 | 16 | 0.035 | 0.53 (≈ 0.457 µM) | 131 | 147 | 1.56 (≈ 1.35 µM) | 0.63 (≈ 0.543 µM) | 0.022 | 0.31 (≈ 0.267 µM) | 1.56 (≈ 1.35 µM) | 1.56 (≈ 1.35 µM) | – | – | – |
| C=C(C/C=C(\C)CCC=C(C)C)CCC(C)(C)/C=C/CC/C(C)=C\CO[C@H](COP(=O)(O)O[C@H]1O[C@@H](C(N)=O)[C@@](C)(O)[C@H](OC(N)=O)[C@@H]1O[C@@H]1O[C@@H](CO[C@@H]2O[C@@H](CO)[C@@H](O)[C@H](O)[C@@H]2O)[C@@H](O[C@@H]2O[C@@H](C)[C@@H](O[C@@H]3O[C@@H](C(=O)NC4=C(O)CCC4=O)[C@H](O)[C@H](O)[C@@H]3O)[C@H](O)[C@@H]2NC(C)=O)[C@@H](O)[C@@H]1NC(C)=O)C(=O)O [MOENOMYCIN] | 0.78 (≈ 0.493 µM) | > 200 | 0.078 (≈ 0.0493 µM) | > 700000 | 15.6 | 125 | 0.025 (≈ 0.0158 µM) | 31 | 143 | 0.06 (≈ 0.0379 µM) | 0.05 (≈ 0.0316 µM) | 0.48 | 0.025 (≈ 0.0158 µM) | 0.13 (≈ 0.0821 µM) | 0.25 (≈ 0.158 µM) | – | – | – |
